Data published in PMC535546, “Assessment of FIV-C infection of cats as a function of treatment with the protease inhibitor, TL-3” (Retrovirology, 2004).

Legend:
wild-type FIV-C protease = experiment: Inhibitor constant (Ki) of TL-3 against wild-type FIV-C protease, fluorogenic substrate; format: biochemical, feline immunodeficiency virus (FIV-C); settings: wildtype PR
Text: (§1) Complementary DNA (cDNA) was synthesized from isolated plasma viral RNA of infected cats. […] The amplified PCR product was gel purified and cloned into pCR-TOPOII vector (Invitrogen, Carlsbad, CA) for sequencing. Selected DNA of mutants, N55D, H72R, D105G, and M107R were digested with Nde I/Hind III and ligated into pET21a expression vector (Novagen). The mutant FIV-C proteases were expressed in Rosetta pLysS cells (Novagen) and purified as previously described.
(§2) Enzyme kinetics of FIV-C protease were assayed on the flourogenic substrate Arg-Ala-Leu-Thr-Lys(Abz)-Val-Gln/Phe(NO2)-Val-Gln-Ser-Lys-Gly-Arg-NH2. […] Inhibitor constant (Ki) of TL-3 against mutant FIV-C protease was analyzed as described.

[1] = system: SIV (simian immunodeficiency virus); set-up: method as in PMID 9448264; settings: cited from earlier work
[2] = biological target: FIV-C protease mutant D105G (HIV88N) (Feline immunodeficiency virus, UniProt P16088, D143G)
Text: as §1, §2

FIV = system: FIV; set-up: method as in PMID 9448264; settings: cited from earlier work
[3] = biological target: T1, FIV-C protease mutant H72R (HIV63L) (Feline immunodeficiency virus, UniProt P16088, H110R); experiment: Inhibitor constant (Ki) of TL-3 against mutant FIV-C protease H72R; format: biochemical; settings: PR mutation H72R (HIV63L), cat 231
T1 construct: adds a stop codon and a Hind III restriction site to the C-terminus of the protease; Met-Ala N-terminal extension (printed 'methionine, and alkaline'; the primer codes ATG GCA) (N); made in house; host or cells: E. coli Rosetta pLysS, pET21a
Text: as §1, §2

HIV-1 = system: HIV-1; set-up: method as in PMID 9448264; settings: cited from earlier work
FIV-PPR = FIV-PPR infected cats; cited from earlier work
[4] = biological target: T2, FIV-C protease mutant N55D (HIV46M) (Feline immunodeficiency virus, UniProt P16088, N93D); experiment: Inhibitor constant (Ki) of TL-3 against mutant FIV-C protease N55D; format: biochemical; settings: PR mutation N55D (HIV46M), cat 231
T2 construct: adds a stop codon and a Hind III restriction site to the C-terminus of the protease; Met-Ala N-terminal extension (printed 'methionine, and alkaline'; the primer codes ATG GCA) (N); made in house; host or cells: E. coli Rosetta pLysS, pET21a
Text: as §1, §2

FIV-C (CABCpady00C) = experiment: FIV-C infection of cats with oral TL-3 treatment (viral load, disease, survival); format: in vivo, cat
Method: Twenty-two female specific pathogen-free (SPF) cats were randomly divided into five groups. Group 0 consisted of two cats, which received TL-3 treatment without viral infection and were considered controls. Group 1 (n = 5) received 0.1 ml (10^5 RNA copies/ml) of FIV-C-infected plasma I.V. with TL-3 drug treatment. Group 2 (n = 5) received 0.1 ml FIV-C-infected plasma without TL-3 treatment. Group 3 (n = 5) received 0.5 ml FIV-C-infected plasma with TL-3 and Group 4 (n = 5) received 0.5 ml FIV-C-infected plasma without TL-3 treatment. Blood (1 ml) was drawn from all cats prior to the start of the experiment, at weekly intervals for the first four weeks after infection, and at bi-monthly intervals from week 4 until the end of the study. Complete blood counts were assessed as a function of infection and TL-3 treatment. In addition, quantitative reverse transcription PCR (QRT-PCR) analyses were performed to assess plasma viral load. All animals were continuously observed for any changes in general health. No significant differences were noted between viral load or disease phenotype between the two plasma dosages used in infection and subsequent discussion will not distinguish between these two groups.
Plasma samples (10^5 RNA copies/ml) from a cat, that had died from an acute infection with CABCpady00C (FIV-C), were kindly provided by Dr. E. Hoover, of Colorado State University. Cats were injected I.V. with either 0.1 ml (10^5 RNA copies/ml) or 0.5 ml of plasma.
(§3) All procedures for care of cats during dosing as well as dosing procedures were mandated by TSRI's IACUC. Oral TL-3 (L-Iditol,1,2,5,6-tetradeoxy-1,6-diphenyl-2,5-bis [N-[(phenylmethoxy)carbonyl]-L-alanyl-L-valyl]amino]) treatment was initiated in 12 cats, three days prior to infection of ten of the twelve animals with FIV-C. All TL-3 treated animals received 20 mg TL-3 by capsules at eight hour intervals, for approx. the first 7.5 weeks of the experiment. Dosage was then doubled to 40 mg TL-3 per dose at eight hour intervals for an additional week for the two control animals and the eight surviving animals in the TL-3 treated, infected cohort.
Animals were examined daily and in case of health concerns further therapy/diagnostics were initiated. Animals with abnormal weight, or on antibiotics were placed on supplemental feeding with moist food and Nutrical. Dehydrated animals received subcutaneous fluid therapy. More affected animals received supportive care and medications, consisting of BID administration of antibiotics (Baytril), BID subcutaneous fluid therapy, BID temperature evaluation, BID application of antibiotic ophthalmic ointment supportive care. Any animals that required extensive supportive care (TID fluid therapy, TID force feeding) were euthanized. Euthanasia of research animals was conducted with strict adherence to NIH Office of Laboratory Animal Welfare protocols.
Plasma for weeks 0, 2, 4, 6 (terminal points for cats 215, 221, and 229), 6.5 (terminal points for cats 219, 220, and 234), and 8, were isolated from whole blood by centrifugation and stored at -20°C. Viral RNA was extracted using the QiaAmp Viral RNA Isolation Kit (Qiagen, Valencia, CA) according to manufacturer's instructions with slight modifications: Plasma samples (280 μl) were lysed in buffer AVL (1,120 μl) (Qiagen) for 10 minutes at room temperature in the presence of carrier RNA (10 μg/ml) and an external Kanamycin (KAN) RNA spike. Equal amounts of the external RNA spike (10^9 copies RNA /280 μl plasma), corresponding to the 1.2 kb KAN gene (Promega, Madison, WI), was used to normalize plasma volumes between samples and to correct for sample loss from viral RNA extraction and cDNA synthesis. An on-column DNase/ RNase free (Qiagen) incubation step for 10 minutes at room temperature was added to remove residual cellular DNA. […]

[5] = Tolerability of oral TL-3 in uninfected control cats; format: in vivo, cat; settings: TL-3 treated controls, 20 mg then 40 mg oral every eight hours
Method: as §3

CC(C)[C@H](NC(=O)[C@H](C)NC(=O)OCc1ccccc1)C(=O)N[C@@H](Cc1ccccc1)[C@@H](O)[C@H](O)[C@H](Cc1ccccc1)NC(=O)[C@@H](NC(=O)[C@H](C)NC(=O)OCc1ccccc1)C(C)C [TL-3]
Ki (wild-type FIV-C protease): 9.9 nM
inhibition of infection in vitro [1]: inhibits
resistance against TL-3 relative to wild type protease ([2]; D105G mutant vs wild type FIV-C protease): 5 fold
Ki ([2]; read-out: Ki vs TL-3, PR mutation D105G (HIV88N), cloned from cats 231 and 222): 47.3 nM
inhibition of infection in vitro (FIV): inhibits
Ki [3]: 10.9 nM
inhibition of infection in vitro (HIV-1): inhibits
effect on delays in brainstem auditory evoked potentials (BAEPs) (FIV-PPR): could reverse this effect
effect on neurologic alterations in the CNS (FIV-PPR): significant protective effect
plasma viral loads (FIV-PPR): lowered plasma viral loads
Ki [4]: 9.1 nM
animals that had lost weight (FIV-C (CABCpady00C); 6 weeks post infection, + TL-3 cohort, three also in -TL-3 cohort): three
animals that required euthanasia (FIV-C (CABCpady00C); TL-3 treated group, of six euthanized, four from untreated cohort): two
average (peak) viral loads vs untreated animals (FIV-C (CABCpady00C); acute phase, did not reach statistical significance): lower
animals showing clinical signs of debilitating acute phase disease (FIV-C (CABCpady00C); by week 6 post infection, TL-3 treated groups, of seven affected, four untreated): three
prevention of viremia (FIV-C (CABCpady00C); oral monotherapy, high dose FIV-C): did not prevent viremia
plasma viremia, TL-3 treated vs untreated cohorts (FIV-C (CABCpady00C); week 2 post infection): little differences in viral loads
animals with viral loads below detection limits (FIV-C (CABCpady00C); week 8 post infection, surviving TL-3 treated cats, oral 20 mg every eight hours, untreated: one of six): four of 8 and half
adverse effects [5]: No adverse effects
